Measured values as given in ChEMBL document CHEMBL5214974, “The design of protozoan phosphoribosyltransferase inhibitors containing non-charged phosphate mimic residues” (Bioorg Med Chem, 2022).

Experiments:
[1] = Inhibition of N-terminal His6-tagged Trypanosoma cruzi HGPRT isoform C expressed in Escherichia coli C43(DE3) cells assessed as inhibition of IMP formation using hypoxanthine as substrate by spectrophotometric assay
[2] = Inhibition of N-terminal His6-tagged Trypanosoma cruzi HGXPRT isoform B expressed in Escherichia coli BL21(DE3) cells assessed as inhibition of IMP formation using hypoxanthine as substrate by spectrophotometric assay
[3] = Inhibition of N-terminal His6-tagged HGXPRT expressed in Escherichia coli BL21 cells assessed as reduction in NADH absorbance using hypoxanthine as substrate by IMPDH coupled assay; parameters: species or system Plasmodium falciparum

| SMILES | Ki [1] [µM] | Ki [2] [µM] | Ki [3] [µM] |
| --- | --- | --- | --- |
| O=C1CN(CC[C@@H](CO)NCc2c[nH]c3c(O)ncnc23)S(=O)(=O)N1 | > 130 | > 140 | > 20 |
| Nc1nc(O)c2[nH]cc(CN[C@H](CO)CCP(=O)(O)O)c2n1 | 0.03 | – | 0.0005 |
| O=c1[nH]cnc2c(CN[C@H](CO)CCP(=O)(O)O)c[nH]c12 | 0.011 | – | 0.00065 |
| O=c1cc([C@@H](CO)NCc2c[nH]c3c(O)ncnc23)o[nH]1 | > 130 | > 140 | > 20 |
| O=C1N[C@@H]([C@@H](CO)NCc2c[nH]c3c(O)ncnc23)CO1 | > 130 | > 140 | > 20 |
| O=c1c(O)c(NC[C@@H](CO)NCc2c[nH]c3c(O)ncnc23)c1=O | > 130 | > 140 | > 20 |
| NS(=O)(=O)NC[C@@H](CO)NCc1c[nH]c2c(O)ncnc12 | > 130 | > 140 | > 20 |
| O=C1CN(CC[C@@H](CO)NCc2c[nH]c3c(O)nc(O)nc23)S(=O)(=O)N1 | > 130 | > 140 | > 20 |
| O=P(O)(O)CC[C@@H](CO)NCc1c[nH]c2c(O)nc(O)nc12 | 18 | – | 8 |
| O=c1c(O)c(NCC[C@@H](CO)NCc2c[nH]c3c(O)ncnc23)c1=O | > 130 | > 140 | > 20 |
| NS(=O)(=O)NC[C@@H](CO)NCc1c[nH]c2c(O)nc(O)nc12 | > 130 | > 140 | > 20 |
| O=C1CN(C[C@@H](CO)NCc2c[nH]c3c(O)nc(O)nc23)S(=O)(=O)N1 | > 130 | > 140 | > 20 |
| O=C1CN(C[C@@H](CO)NCc2c[nH]c3c(O)ncnc23)S(=O)(=O)N1 | > 130 | > 140 | > 20 |
